Experimental findings from article PMC12690573, “Playing with Structural Parameters in the Design of Ruthenium(II)–p‑Cymene Complexes as Potential Antibacterial Agents” (Inorganic Chemistry, 2025) are described below.

SMILES strings stand for the structures. Converted amounts (≈) assume the structure as drawn. Read-outs that look alike come from different tables or passages of the source.

The nature of data set [1]: Water–octanol partition coefficient, shake-flask method (Log P pH7.4). To be noted: PBS pH 7.4 / n-octanol, 16 μM. Type of data set: physicochemical. On the procedure:
The study was performed by using the shake-flask method, obtaining the water–octanol partition coefficients of complexes in PBS buffer at pH = 7.4 (Log P pH7.4), as listed in Table .
The octanol–water distribution coefficients were determined at pH 7.4 using the shake-flask method. , Briefly, solutions of the tested compounds (16 μM) in phosphate buffer (pH 7.4) were mixed with n-octanol in flasks at three different PBS:n-octanol ratios (1:1, 0.5:1, 2:1). The mixtures were manually shaken to allow equilibration between the organic and aqueous phases. Subsequently, phase separation was achieved by centrifugation at 4000 rpm for 10 min. The concentrations of ruthenium compounds in both phases were then determined spectrophotometrically. The log P 7.4 values were calculated as the mean value of the log[Ru-pCy1–5]-oct/[Ru-pCy1–5]PBS/4 values obtained from the three different PBS:n-octanol ratio samples for each complex.

Data set [2] can be described thus: Aquation (Ru–Cl hydrolysis) followed by UV–vis in aqueous solution. Type of data set: physicochemical. To be noted: neutral pH, 298 K; for k water (aquation rate constant) / t 1/2 (aquation half-life): 10 μM, pseudo-first-order model. As to the method: In view of the well-known lability of the Ru(II)–Cl bond in RACs and considering its relevance for their biological mechanism of action, the aquation process of all systems was investigated. This was performed according to literature methods spectrophotometrically, by registering the UV–vis spectra of freshly prepared aqueous solutions of complexes at neutral pH over different times, up to 12 h, at 298 K. Results for Ru-pCy1 are shown in Figure , while those for the other complexes are reported in Figures S27–S28 Supporting Information. […] The temporal evolution to the aquo-species is also further supported by comparison of spectra collected at increasing time frames and the absorption profile of the aquo species, registered by adding AgNO3 to the metal complex (Figure b). A similar behavior was also observed for the other compounds, confirming their capability to readily lose the chloride ligand. […] Hydrolysis was not observed during the stability experiments (Figure S26), likely being suppressed by the high NaCl concentration in the PBS buffer media (140 mM).
The aquation rate constants (k water) and the corresponding half-lives (t 1/2) were determined by the time-dependent absorbance changes at the MLCT maxima according to a pseudo-first-order kinetic model. The resulting values, reported in Table , range between 2.48 and 5.4 × 10^–4 s^–1.

The nature of data set [3]: pKa of coordinated water ligand by UV–vis pH titration. Type of data set: physicochemical. To be noted: absorbance at 435 nm, Henderson–Hasselbalch fit, 298 K. An excerpt: Lastly, the tendency of the coordinated water ligand to undergo deprotonation was also considered. This has been investigated for the lead compound Ru-pCy1, by recording the UV–vis spectra of batchwise aqueous solutions of the complex at different pH values and monitoring the changes in the MLCT region (Figure S29).
(§1) The acid–base behavior of the coordinated water ligand to the metal scaffold was also considered. To this aim, the UV–vis spectra of batchwise aqueous solutions of the lead compound Ru-pCy1 at different pH at 298 K were registered, and the changes in the MLCT region were monitored. […] A slightly higher value (8.82 ± 0.08) was instead determined potentiometrically under mixed solvent conditions (H2O/EtOH 4:1 v/v, NaClO4 0.1 M, 298 K, ligand concentration 1 mM), required to ensure the full solubilization of the complex.

Data set [4] can be described thus: pKa of coordinated water ligand, potentiometric. It counts as physicochemical. The note with it: H2O/EtOH 4:1 v/v, NaClO4 0.1 M, 298 K, 1 mM. As to the method: as §1
Data set [5] is described as follows: Stability in CH3CN/PBS solution by UV–vis over 72 h. Type of data set: physicochemical. The note with it: 1 × 10^–5 M in CH3CN/PBS (CH3CN 1% v/v), room temperature. On the procedure: To gain insights into the suitability of RACs for biological purposes, their stability in aqueous solution was investigated before studying their interactions with representative proteins (SOD, RNase A, and CytC) by ESI-MS analysis (vide infra). Measurements were performed under strictly controlled conditions (temperature, pH, and complex concentration), namely, at a concentration of 1 × 10^–5 M in CH3CN/PBS solution (CH3CN 1% v/v) at room temperature, over a total of 72 h. The resulting time-dependent absorption profiles are reported in Figure S26 (Supporting Information).
Spectrofluorimetric-grade solvents were used for the preparation of all solutions. The PBS solution (pH 7.4, KCl 2.7 mM, NaCl 140 mM, phosphate 10 mM) was prepared according to the standard procedure. RACs were dissolved in CH3CN and then diluted to reach a final concentration of 1 × 10^–5 M in CH3CN/buffer solution (CH3CN 1% v/v). A PerkinElmer Lambda 900 spectrophotometer was employed to record the UV–Visible absorption spectra using 10 mm path-length quartz cuvettes.

Data set [6] addresses T1, Bovine Superoxide Dismutase (SOD) (Bos taurus, UniProt P00442).
T1 construct: purchased Merck
Description: ESI-MS protein interaction study with SOD. It counts as binding. The note with it: 1:3 protein to ruthenium ratio, 24 h, 37 °C. As to the method:
(§2) Accordingly, ESI-MS spectra of RNase A, SOD, and CytC incubated for 24 h with a 3-fold molar excess of each of the five different ruthenium complexes were recorded. […] This could be exacerbated by the steric hindrance of L3.
(§3) Sample preparation: stock solutions of Bovine Superoxide Dismutase SOD) (Merck), Bovine Pancreatic Ribonuclease A (Merck), and Horse Heart Cytochrome c (Merck) 10^–3 M were prepared by dissolving the lyophilized protein in LC–MS-grade water. Stock solutions 10^–2 M RACs were prepared by dissolving the samples in acetonitrile. For the experiments, an aliquot of the stock solutions of the selected protein was mixed with aliquots of each ruthenium compounds at protein-to-metal ratio 1:3 and diluted with LC–MS-grade water to 100 μM final protein concentration. The mixtures were incubated at 37 °C up to 24 h. After the incubation time, the protein solutions were sampled and diluted to a final protein concentration of 500 nM using LC–MS-grade water and adding 0.1% v/v of formic acid just before the infusion in the mass spectrometer.
(§4) Instrumental parameters: the ESI mass spectra were acquired through direct infusion at 7 μL min^–1 flow rate in a TripleTOF 5600+ high-resolution mass spectrometer (Sciex, Framingham, MA, U.S.A.), equipped with a DuoSpray interface operating with an ESI probe.
SOD: positive polarity, IonSpray Voltage Floating 5500 V, Temperature 0, Ion source Gas 1 (GS1) 40 L/min; Ion source Gas 2 (GS2) 0; Curtain Gas (CUR) 15 L/min, Declustering Potential (DP) 200 V, Collision Energy (CE) 10 V, acquisition range 1500–3500 m/z.
(§5) For acquisition, Analyst TF software 1.7.1 (Sciex) was used, and deconvoluted spectra were obtained by using the Bio Tool Kit microapplication v.2.2 embedded in Peak-ViewTM software v.2.2 (Sciex).

For data set [7], the target named is T2, Bovine Pancreatic Ribonuclease A (Bos taurus, UniProt P61823).
T2 construct: Bovine Pancreatic Ribonuclease A (Merck); purchased Merck
T2 sequence (P61823 27-150): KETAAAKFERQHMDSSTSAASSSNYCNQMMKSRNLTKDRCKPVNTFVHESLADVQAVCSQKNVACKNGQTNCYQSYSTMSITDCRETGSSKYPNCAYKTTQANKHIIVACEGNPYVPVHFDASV
Description: ESI-MS protein interaction study with RNase A. Type of data set: binding. The note with it: 1:3 protein to ruthenium ratio, 24 h, 37 °C. On the procedure:
as §2, §3, §4
RNase: positive polarity, Ionspray Voltage Floating 5500 V, Temperature 0, Ion source Gas 1 (GS1) 40 L/min; Ion source Gas 2 (GS2) 0; Curtain Gas (CUR) 15 L/min, Declustering Potential (DP) 100 V, Collision Energy (CE) 10 V, acquisition range 1000–2600 m/z.
as §5

In a further data set the test system is B. subtilis 168. Description: Antibacterial susceptibility, broth microdilution (OD600). Type of data set: cell-based, Bacillus subtilis. To be noted: for MIC: B. subtilis 168, MHB, 24 h; for Concentration inducing approximately 50% inhibition of bacterial growth / Antibacterial activity profile (in words): B. subtilis; for Concentration inducing approximately 50% inhibition of bacterial growth: normalized OD600, 24 h; for Antibacterial activity profile (in words): normalized OD600 vs concentration. An excerpt:
(§6) The antibacterial properties of Ru-pCy1–5 were investigated against Burkholderia cenocepacia strains J2315 and K56-2, two well-characterized clinical isolates of this Gram-negative pathogen, as well as against Bacillus subtilis 168, which was used as a model for a Gram-positive bacterial strain.
(§7) The obtained results are presented as normalized OD600 values, reporting the ratio of bacterial growth relative to that of the control (untreated) cells. These are plotted in Figure as a function of the compound concentrations (μg/mL), providing a quantitative assessment of the dose-dependent effects on bacterial growth of the tested ruthenium complexes.
(§8) Antimicrobial susceptibility was assessed in the following strains: B. cenocepacia K56-2 and J2315 and B. subtilis 168. For each bacterial strain, three independent biological replicates were prepared by inoculating Mueller–Hinton Broth (MHB) into sterile culture tubes, followed by overnight incubation at 37 °C with shaking at 130 rpm. Cultures were diluted to a final OD600 of 0.05 per well in 96-well microplates (Sarstedt AG & Co.) and exposed to 10 serial 2-fold dilutions of the compounds, ranging from 256 μg/mL to 0.5 μg/mL. Each biological replicate included three technical replicates. Growth inhibition was assessed visually and quantified by measuring OD600 after 24 h for B. subtilis 168 and after 48 h for B. cenocepacia strains K56-2 and J2315 using a Tecan Infinite 200 PRO plate reader.
Background: Broth dilution looks for growth in wells or tubes with falling amounts of substance.

For another data set, the system named is B. cenocepacia J2315. The description is as above. Type of data set: cell-based, Burkholderia cenocepacia. The note with it: for MIC: B. cenocepacia J2315, MHB, 48 h.
Description: as §6, §7, §8

In the next data set the test system is B. cenocepacia K56-2. The description is as above. Type of data set: cell-based, Burkholderia cenocepacia. The note with it: B. cenocepacia K56-2, MHB, 48 h.
Description: as §6, §7, §8

The target in the next data set is T3, Horse Heart Cytochrome c (Equus caballus, UniProt P00004).
T3 construct: Horse Heart Cytochrome c (Merck); purchased Merck
T3 sequence (P00004 whole entry): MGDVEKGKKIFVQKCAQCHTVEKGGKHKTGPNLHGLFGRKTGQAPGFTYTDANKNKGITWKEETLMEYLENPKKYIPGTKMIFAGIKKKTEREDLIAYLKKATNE
In words: ESI-MS protein interaction study with CytC. Type of data set: binding. To be noted: 1:3 protein to ruthenium ratio, 24 h, 37 °C. On the procedure: as §2, §3
Instrumental parameters: the ESI mass spectra were acquired through direct infusion at 7 μL min^–1 flow rate in a TripleTOF 5600+ high-resolution mass spectrometer (Sciex, Framingham, MA, U.S.A.), equipped with a DuoSpray interface operating with an ESI probe. […]

Usually MIC stands for the smallest concentration in the dilution series that meets the test's criterion for growth inhibition.

T1 sequence (P00442 whole entry): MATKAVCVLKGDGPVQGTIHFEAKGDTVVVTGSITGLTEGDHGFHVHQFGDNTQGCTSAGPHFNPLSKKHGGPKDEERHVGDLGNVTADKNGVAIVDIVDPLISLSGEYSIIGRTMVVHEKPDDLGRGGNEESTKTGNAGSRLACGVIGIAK

Regarding `Cc1ccc(C(C)C)cc1.F[P-](F)(F)(F)(F)F.[Cl-].[Ru+2].c1ccc2cc3nc4c5cccnc5c5ncccc5c4nc3cc2c1` [Ru-pCy1], the “Log P pH7.4” value in data set [1] came out at 0.80 ± 0.30. For the same compound, the “k water (aquation rate constant)” value in data set [2] is on record as 2.5 ± 0.1 × 10^–4 s^–1. Besides, in data set [2], the “t 1/2 (aquation half-life)” value came to 46.5 ± 2.0 min. Besides, the entries for the “pK a of coordinated water ligand” value in data set [3] and in data set [4] were 8.3 ± 0.1 and 8.82 ± 0.08, respectively. Also, the “Stability in aqueous solution” value in [5] was “moderate tendency to precipitate at the longest time points”. Also, the “Adduct formation with SOD” value in data set [6] is “form stable adducts”. The “Adduct formation with RNase A” value in data set [7] is recorded as “form stable adducts”. In addition, the MIC in the data set with B. subtilis 168 worked out at 128 µg/mL; with B. cenocepacia J2315 it was 128 µg/mL; with B. cenocepacia K56-2, 256 µg/mL. Besides, the “Concentration inducing approximately 50% inhibition of bacterial growth” value in the data set on B. subtilis 168 is roughly 64 µg/mL; with B. cenocepacia J2315 (B. cenocepacia J2315, normalized OD600, 48 h) it was roughly 32 µg/mL. For the same compound, the “Antibacterial activity profile (in words)” value in the data set with B. subtilis 168 is “notable inhibitory effect”.

`Cc1ccc(C(C)C)cc1.F[P-](F)(F)(F)(F)F.[Cl-].[Ru+2].c1ccc(-c2ccnc3c2ccc2c(-c4ccccc4)ccnc23)cc1` [Ru-pCy2]: the “Log P pH7.4” value in data set [1] worked out at 0.91 ± 0.30. For the same compound, in data set [2], the “k water (aquation rate constant)” value was 4.5 ± 0.2 × 10^–4 s^–1 and the “t 1/2 (aquation half-life)” value was 25.7 ± 1.2 min. In addition, the “Adduct formation with SOD” value in data set [6] is recorded as “form stable adducts”. Further, the “Adduct formation with RNase A” value in data set [7] is reported as “form stable adducts”. Moreover, in the data set with B. subtilis 168, the MIC turned out to be 256 µg/mL, the “Concentration inducing approximately 50% inhibition of bacterial growth” value is roughly 8 µg/mL and the “Antibacterial activity profile (in words)” value is listed as “notable inhibitory effect”. The MIC against B. cenocepacia J2315 is 256 µg/mL. This compound returned an MIC in the data set with B. cenocepacia K56-2 greater than 256 µg/mL.

As to `Cc1ccc(C(C)C)cc1.F[P-](F)(F)(F)(F)F.[Cl-].[Ru+2].c1ccc2nc(-c3ccc4ccccc4n3)ccc2c1` [Ru-pCy3], the “Log P pH7.4” value in [1] is 0.57 ± 0.19. For the same compound, the “Ru–Cl hydrolysis (spectral variation over time)” value in data set [2] (aqueous solution, up to 12 h) is reported as “did not show appreciable variations”. In data set [6], the “Adduct formation with SOD” value is “did not interact”. The “Adduct formation with RNase A” value in data set [7] was “did not interact”. For the same compound, the “Adduct formation with CytC” value at Horse Heart Cytochrome c is listed as “did not interact”. The minimum inhibitory concentration (MIC) is 256 µg/mL against B. subtilis 168, 256 µg/mL in the data set on B. cenocepacia J2315 and greater than 256 µg/mL against B. cenocepacia K56-2. The “Antibacterial activity profile (in words)” value with B. subtilis 168 is listed as “intermediate antibacterial characteristics”.

For the compound `O=C(N[C@H](CO)[C@H](O)c1ccc([N+](=O)[O-])cc1)C(Cl)Cl` [chloramphenicol, reference compound], the MIC stood at 16 µg/mL (≈ 49.5 µM) in the data set on B. subtilis 168 (Bacillus subtilis, read-out: MIC); 32 µg/mL (≈ 99 µM) with B. cenocepacia J2315 (Burkholderia cenocepacia, read-out: MIC); 64 µg/mL (≈ 198 µM) in the data set with B. cenocepacia K56-2 (Burkholderia cenocepacia, K562, read-out: MIC).
